Measurements as given in patent US12479847B2 (DANA-FARBER CANCER INSTITUTE, INC., priority 2019, dated 2025).

What was measured:
Assay in all cases: KINOMEscan (ScanMAX) kinase profiling
Assay type in all cases: binding
[1] = target: T1, panel of 468 kinases (Homo sapiens, UniProt P57078); conditions: RIPK4; 1 μM; read-out: % control
T1 construct: purchased KINOMEscan (ScanMAX) service
T1 sequence (P57078 1-832): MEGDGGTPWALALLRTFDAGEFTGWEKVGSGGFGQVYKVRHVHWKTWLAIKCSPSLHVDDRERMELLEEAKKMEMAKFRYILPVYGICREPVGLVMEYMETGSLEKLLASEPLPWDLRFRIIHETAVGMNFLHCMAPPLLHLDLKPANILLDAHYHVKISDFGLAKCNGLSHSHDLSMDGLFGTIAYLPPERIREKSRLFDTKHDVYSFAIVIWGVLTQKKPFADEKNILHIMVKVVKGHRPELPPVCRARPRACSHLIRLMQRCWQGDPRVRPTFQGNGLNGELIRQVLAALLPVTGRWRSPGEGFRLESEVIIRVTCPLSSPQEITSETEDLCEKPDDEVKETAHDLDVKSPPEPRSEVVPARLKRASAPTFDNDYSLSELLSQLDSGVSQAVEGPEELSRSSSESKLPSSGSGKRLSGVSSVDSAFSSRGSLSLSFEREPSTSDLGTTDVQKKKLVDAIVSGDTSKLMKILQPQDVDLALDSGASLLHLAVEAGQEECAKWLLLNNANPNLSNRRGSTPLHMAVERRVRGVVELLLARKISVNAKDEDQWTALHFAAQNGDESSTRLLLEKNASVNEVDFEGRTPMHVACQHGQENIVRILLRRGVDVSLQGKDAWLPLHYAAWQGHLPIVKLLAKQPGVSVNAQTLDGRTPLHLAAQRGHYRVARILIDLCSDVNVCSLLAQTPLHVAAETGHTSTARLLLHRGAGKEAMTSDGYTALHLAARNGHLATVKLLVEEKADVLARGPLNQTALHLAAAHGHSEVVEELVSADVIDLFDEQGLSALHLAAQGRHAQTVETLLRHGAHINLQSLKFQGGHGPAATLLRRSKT

[2] = target: T2, panel of 468 kinases (Homo sapiens, UniProt Q9Y2H9); conditions: MAST1; 1 μM; read-out: % control
T2 construct: purchased KINOMEscan (ScanMAX) service
T2 sequence (Q9Y2H9 whole entry): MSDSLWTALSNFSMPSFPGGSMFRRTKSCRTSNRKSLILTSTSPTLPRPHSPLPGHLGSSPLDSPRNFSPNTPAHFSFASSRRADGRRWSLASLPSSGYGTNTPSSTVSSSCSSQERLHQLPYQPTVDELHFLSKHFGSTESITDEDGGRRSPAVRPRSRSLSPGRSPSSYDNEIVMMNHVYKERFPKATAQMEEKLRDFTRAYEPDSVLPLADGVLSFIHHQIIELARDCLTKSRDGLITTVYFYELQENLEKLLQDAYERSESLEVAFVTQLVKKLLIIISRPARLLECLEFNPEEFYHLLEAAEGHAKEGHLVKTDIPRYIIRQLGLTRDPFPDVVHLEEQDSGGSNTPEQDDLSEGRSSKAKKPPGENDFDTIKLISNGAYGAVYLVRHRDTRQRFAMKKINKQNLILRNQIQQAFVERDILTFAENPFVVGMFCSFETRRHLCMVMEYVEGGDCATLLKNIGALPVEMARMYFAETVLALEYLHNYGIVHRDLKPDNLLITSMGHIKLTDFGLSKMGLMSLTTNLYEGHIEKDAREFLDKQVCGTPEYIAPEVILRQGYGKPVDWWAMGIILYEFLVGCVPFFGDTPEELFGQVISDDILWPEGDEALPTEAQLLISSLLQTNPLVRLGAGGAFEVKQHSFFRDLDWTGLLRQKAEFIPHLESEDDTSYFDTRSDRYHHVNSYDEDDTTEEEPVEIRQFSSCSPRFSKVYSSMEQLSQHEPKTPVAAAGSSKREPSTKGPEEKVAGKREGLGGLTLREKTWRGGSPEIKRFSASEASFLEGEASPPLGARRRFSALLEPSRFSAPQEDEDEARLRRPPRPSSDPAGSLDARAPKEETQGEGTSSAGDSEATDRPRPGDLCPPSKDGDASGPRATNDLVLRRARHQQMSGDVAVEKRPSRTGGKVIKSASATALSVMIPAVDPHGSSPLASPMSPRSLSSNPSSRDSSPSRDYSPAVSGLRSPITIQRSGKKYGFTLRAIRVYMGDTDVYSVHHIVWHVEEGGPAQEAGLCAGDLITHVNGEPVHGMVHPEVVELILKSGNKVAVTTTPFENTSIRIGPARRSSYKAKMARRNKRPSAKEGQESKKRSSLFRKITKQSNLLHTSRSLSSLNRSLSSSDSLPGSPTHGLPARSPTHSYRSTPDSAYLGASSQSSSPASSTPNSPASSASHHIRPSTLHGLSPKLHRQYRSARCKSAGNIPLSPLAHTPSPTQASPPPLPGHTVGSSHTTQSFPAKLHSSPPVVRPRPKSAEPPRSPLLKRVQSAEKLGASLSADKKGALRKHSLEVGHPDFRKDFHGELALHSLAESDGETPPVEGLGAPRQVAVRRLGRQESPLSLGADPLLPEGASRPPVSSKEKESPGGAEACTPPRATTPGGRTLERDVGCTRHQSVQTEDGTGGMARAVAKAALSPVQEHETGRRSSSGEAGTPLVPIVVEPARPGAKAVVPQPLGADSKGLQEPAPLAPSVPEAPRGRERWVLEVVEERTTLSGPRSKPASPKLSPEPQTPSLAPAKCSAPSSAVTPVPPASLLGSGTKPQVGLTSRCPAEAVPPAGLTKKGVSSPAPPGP

[3] = target: T3, panel of 468 kinases (Homo sapiens, UniProt Q13153); conditions: PAK1; 1 μM; read-out: % control
T3 construct: purchased KINOMEscan (ScanMAX) service
T3 sequence (Q13153 whole entry): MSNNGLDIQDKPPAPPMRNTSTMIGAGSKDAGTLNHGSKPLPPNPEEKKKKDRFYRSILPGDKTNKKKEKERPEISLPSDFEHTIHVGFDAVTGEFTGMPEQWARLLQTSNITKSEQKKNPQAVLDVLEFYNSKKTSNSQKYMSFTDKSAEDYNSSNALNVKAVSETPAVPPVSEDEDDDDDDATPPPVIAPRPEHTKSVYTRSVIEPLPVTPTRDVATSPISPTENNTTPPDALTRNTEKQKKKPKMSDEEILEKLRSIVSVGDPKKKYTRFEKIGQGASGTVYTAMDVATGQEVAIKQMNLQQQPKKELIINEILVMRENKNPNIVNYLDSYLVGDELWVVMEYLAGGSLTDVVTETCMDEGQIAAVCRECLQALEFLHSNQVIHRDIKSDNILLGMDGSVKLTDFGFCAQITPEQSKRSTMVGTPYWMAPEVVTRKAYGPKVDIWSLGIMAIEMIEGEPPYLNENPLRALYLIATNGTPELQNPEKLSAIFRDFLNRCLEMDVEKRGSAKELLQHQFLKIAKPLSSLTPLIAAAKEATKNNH

[4] = target: T4, panel of 468 kinases (Homo sapiens, UniProt Q8N752); conditions: CSNK1A1L; 1 μM; read-out: % control
T4 construct: purchased KINOMEscan (ScanMAX) service
T4 sequence (Q8N752 1-337): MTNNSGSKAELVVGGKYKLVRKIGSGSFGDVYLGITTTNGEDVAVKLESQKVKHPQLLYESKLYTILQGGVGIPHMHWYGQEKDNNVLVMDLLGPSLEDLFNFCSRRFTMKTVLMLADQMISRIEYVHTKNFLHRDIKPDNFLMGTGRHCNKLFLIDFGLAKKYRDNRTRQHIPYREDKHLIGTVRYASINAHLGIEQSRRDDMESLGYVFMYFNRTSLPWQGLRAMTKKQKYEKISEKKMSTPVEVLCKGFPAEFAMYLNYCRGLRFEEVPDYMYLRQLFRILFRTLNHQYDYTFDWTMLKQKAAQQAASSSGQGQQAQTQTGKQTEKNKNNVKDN

[5] = target: T5, panel of 468 kinases (Homo sapiens, UniProt Q13705); conditions: ACVR2B; 1 μM; read-out: % control
T5 construct: purchased KINOMEscan (ScanMAX) service
T5 sequence (Q13705 19-512): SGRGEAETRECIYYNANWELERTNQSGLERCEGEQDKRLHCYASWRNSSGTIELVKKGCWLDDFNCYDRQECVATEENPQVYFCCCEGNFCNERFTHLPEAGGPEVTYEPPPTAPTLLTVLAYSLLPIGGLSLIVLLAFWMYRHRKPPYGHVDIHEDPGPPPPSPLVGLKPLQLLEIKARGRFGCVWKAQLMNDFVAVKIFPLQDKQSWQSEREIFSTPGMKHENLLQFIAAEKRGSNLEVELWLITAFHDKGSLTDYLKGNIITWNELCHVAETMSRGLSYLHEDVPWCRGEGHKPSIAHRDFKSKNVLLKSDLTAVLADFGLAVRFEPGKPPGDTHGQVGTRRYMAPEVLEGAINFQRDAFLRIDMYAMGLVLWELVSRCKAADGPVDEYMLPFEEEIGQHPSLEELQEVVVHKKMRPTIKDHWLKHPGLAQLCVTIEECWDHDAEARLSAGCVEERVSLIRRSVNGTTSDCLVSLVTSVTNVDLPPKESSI

| SMILES | remaining binding at 1 µM [1] [%] | remaining binding at 1 µM [2] [%] | remaining binding at 1 µM [3] [%] | remaining binding at 1 µM [4] [%] | remaining binding at 1 µM [5] [%] |
| --- | --- | --- | --- | --- | --- |
| CNc1nc(Nc2ccc(S(=O)(=O)N3CCC(N4CCOCC4)CC3)cc2OC)nc2[nH]cc(Cl)c12 [Compound 12, 5-chloro-N2-(2-methoxy-4-((4-morpholinopiperidin-1-yl)sulfonyl)phenyl)-N4-methyl-7H-pyrrolo[2,3-d]pyrimidine-2,4-diamine] | 76 | 100 | 100 | 56 | 79 |
| CNc1nc(Nc2ccc(C(=O)N3CCC(N4CCOCC4)CC3)c3c2OCO3)nc2[nH]cc(Cl)c12 [Compound 75, (7-((5-chloro-4-(methylamino)-7H-pyrrolo[2,3-d]pyrimidin-2-yl)amino)benzo[d][1,3]dioxol-4-yl)(4-morpholinopiperidin-1-yl)methanone] | 89 | 93 | 100 | 70 | 95 |
| CNc1nc(Nc2ccc(P3(=O)CCN(C4CCOCC4)CC3)cc2OC)nc2[nH]cc(Cl)c12 [Compound 77, 4-(4-((5-chloro-4-(methylamino)-7H-pyrrolo[2,3-d]pyrimidin-2-yl)amino)-3-methoxyphenyl)-1-(tetrahydro-2H-pyran-4-yl)-1,4-azaphosphinane 4-oxide] | 98 | 97 | 100 | 36 | 73 |
